Where two headings read alike, the source gives them in different places.

In one assay the target is T1, CDK5/GST-p25 (Homo sapiens, UniProt Q00535).
T1 construct: The final construct, encoding for full-length human CDK5; made in house; host or cells: Sf21 insect cells (baculovirus co-infection)
Description: Inhibition of CDK5/GST-p25 kinase activity (ELISA with time-resolved fluorescence readout). The format is biochemical. Put shortly:
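The substrate, GST-Rb(773-928), was immobilised on plates and phosphorylated for 20 min at 37 °C by 2 ng/ml CDK5/GST-p25 in HEPES pH 7.2 with 10 µM ATP and 10 mM MgCl2. Both proteins were human and co-expressed in insect cells. Ser-780 phosphorylation was read by europium time-resolved fluorescence and converted to IC50.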

A further assay deals with T2, His6-GSK-3β (Homo sapiens, UniProt P49841).
T2 construct: made in house; host or cells: Sf21 insect cells (baculovirus)
T2 sequence (P49841 2-419): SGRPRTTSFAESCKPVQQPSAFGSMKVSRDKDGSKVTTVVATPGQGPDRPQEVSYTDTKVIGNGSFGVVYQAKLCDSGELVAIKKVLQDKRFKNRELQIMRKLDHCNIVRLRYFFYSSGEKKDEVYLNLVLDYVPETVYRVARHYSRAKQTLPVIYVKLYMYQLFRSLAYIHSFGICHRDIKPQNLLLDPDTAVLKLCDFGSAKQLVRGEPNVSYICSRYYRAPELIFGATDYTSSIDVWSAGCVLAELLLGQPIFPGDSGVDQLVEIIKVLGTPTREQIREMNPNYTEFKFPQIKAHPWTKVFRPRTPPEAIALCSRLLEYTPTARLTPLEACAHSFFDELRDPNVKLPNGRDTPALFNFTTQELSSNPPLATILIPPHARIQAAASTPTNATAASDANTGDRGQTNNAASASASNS
The assay is described as follows: Inhibition of His6-GSK-3β kinase activity (ELISA-based format, time-resolved fluorescence readout). The assay is classed as biochemical. As to conditions: read-out: GSK3β IC50. Put shortly: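 Plate-bound recombinant GST-Rb substrate was phosphorylated for 30 min at 37° C by baculovirus-expressed His6-GSK-3β (200 ng/ml) at 20 μM ATP, 10 mM MgCl2, 2.5% DMSO. Europium time-resolved fluorescence of anti-phospho-Ser780 Rb signal gave inhibition, fitted to IC50.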

T1 sequence (Q00535 whole entry): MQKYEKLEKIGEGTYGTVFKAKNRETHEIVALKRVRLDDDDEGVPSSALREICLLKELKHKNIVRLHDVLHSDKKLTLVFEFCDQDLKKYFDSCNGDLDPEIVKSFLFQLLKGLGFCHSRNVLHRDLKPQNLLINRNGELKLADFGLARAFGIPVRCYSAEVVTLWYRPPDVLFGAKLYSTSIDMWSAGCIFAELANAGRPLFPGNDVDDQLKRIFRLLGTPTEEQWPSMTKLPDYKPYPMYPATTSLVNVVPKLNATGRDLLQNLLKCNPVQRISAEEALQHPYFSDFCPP
T1 sequence (Q15078 108-307 partner limits assumed): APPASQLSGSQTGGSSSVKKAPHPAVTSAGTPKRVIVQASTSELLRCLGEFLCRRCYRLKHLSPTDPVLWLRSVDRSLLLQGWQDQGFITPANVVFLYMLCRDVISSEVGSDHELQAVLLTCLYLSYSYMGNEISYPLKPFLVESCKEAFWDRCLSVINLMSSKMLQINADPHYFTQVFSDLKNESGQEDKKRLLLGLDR

As to `CCCn1cc2c(C3C(=O)Nc4ccc(Br)cc43)nc(NCCC(F)(F)F)nc2n1` (stereo not drawn) [Example 192, 5-Bromo-3-[2-propyl-6-(3,3,3-trifluoro-propylamino)-2H-pyrazolo[3,4-d]pyrimidin-4-yl]-1,3-dihydro-indol-2-one], the IC50 on CDK5/GST-p25 (class symbols) and at His6-GSK-3β (class symbols) was under 300 nM throughout.
As for `N#Cc1ccc2c(c1)C(c1nc(N3CCN(CCc4cccs4)CC3)nc3nn(C4CCCC4)cc13)C(=O)N2` (stereo not drawn) [Example 130, 3-{2-cyclopentyl-6-[4-(2-thiophen-2-yl-ethyl)-piperazin-1-yl]-2H-pyrazolo[3,4-d]pyrimidin-4-yl}-2-oxo-2,3-dihydro-1H-indole-5-carbonitrile], the values for the IC50 at CDK5/GST-p25 (class symbols) and at His6-GSK-3β (class symbols) were over 10000 nM and under 300 nM, respectively.
With `O=C1Nc2ccc(Cl)cc2C1c1nc(NCc2ccc(C(F)(F)F)nc2)nc2c1CCC2` (stereo not drawn) [Example 329, 5-Chloro-3-{2-[(6-trifluoromethyl-pyridin-3-ylmethyl)-amino]-6,7-dihydro-5H-cyclopentapyrimidin-4-yl}-1,3-dihydro-indol-2-one], the IC50 against CDK5/GST-p25 (class symbols) and at His6-GSK-3β (class symbols) was over 10000 nM throughout.
Regarding `O=C1Nc2ccc(Cl)cc2C1c1nc(Cl)nc2c1CCC2` (stereo not drawn) [Example 316, 5-Chloro-3-(2-chloro-6,7-dihydro-5H-cyclopentapyrimidin-4-yl)-1,3-dihydro-inodol-2-one], the IC50 against CDK5/GST-p25 (class symbols) and on His6-GSK-3β (class symbols) was over 10000 nM in each case.
In the case of `CNCCCn1cc2c(C3C(=O)Nc4ccc(Br)cc43)ncnc2n1` (stereo not drawn) [Example 90, 3-[2-(3-methylamino-propyl)-2H-pyrazolo[3,4-d]pyrimidin-4-yl]-5-bromo-1,3-dihydro-indol-2-one], the IC50 was under 300 nM on CDK5/GST-p25 (class symbols) and 300 to 3000 nM at His6-GSK-3β (class symbols).
With `CCOCCNc1nc2c(c(C3C(=O)Nc4ccc(Cl)cc43)n1)CCC2` (stereo not drawn) [Example 325, 5-Chloro-3-[2-(2-ethoxy-ethylamino)-6,7-dihydro-5H-cyclopentapyrimidin-4-yl]-1,3-dihydro-indol-2-one], the IC50 against CDK5/GST-p25 (class symbols) and at His6-GSK-3β (class symbols) was over 10000 nM each time.
Take `CCCOCCNc1nc2c(c(C3C(=O)Nc4ccc(C#N)cc43)n1)CCC2` (stereo not drawn) [Example 343, 2-Oxo-3-[2-(2-propoxy-ethylamino)-6,7-dihydro-5H-cyclopentapyrimidin-4-yl]-2,3-dihydro-1H-indole-5-carbonitrile]: the IC50 at CDK5/GST-p25 (class symbols) and at His6-GSK-3β (class symbols) was over 10000 nM throughout.
Consider “5-Chloro-3-[2-cyclopentyl-6-(2-diethylamino-ethoxy)-2H-pyrazolo [3,4-d]pyrimidin-4-yl]-1,3-dihydro-indol-2-one [Example 141]”, for which the results for the IC50 against CDK5/GST-p25 (class symbols) and at His6-GSK-3β (class symbols) were over 10000 nM and under 300 nM, respectively.
`CN(C)CCNc1nc(C2C(=O)Nc3ccc(Br)cc32)c2cn(C3CCCC3)nc2n1` (stereo not drawn) [Example 370, 5-Bromo-3-[2-cyclopentyl-6-(2-dimethylamino-ethylamino)-2H-pyrazolo [3,4-d]pyrimidin-4-yl]-1,3-dihydro-indol-2-one]: the values for the IC50 at CDK5/GST-p25 (numeric bounds) and on His6-GSK-3β (class symbols) were over 3000 nM and under 300 nM, respectively.
Consider `N#Cc1ccc2c(c1)C(c1nc(NCCCN3CCOCC3)nc3c1CCC3)C(=O)N2` (stereo not drawn) [Example 340, 3-[2-(3-Morpholin-4-yl-propylamino)-6,7-dihydro-5H-cyclopentapyrimidin-4-yl]-2-oxo-2,3-dihydro-1H-indole-5-carbonitrile], for which the IC50 against CDK5/GST-p25 (class symbols) and on His6-GSK-3β (class symbols) was 300 to 3000 nM each time.
For `N#Cc1ccc2c(c1)C(c1nc(N3CCNCC3)nc3c1CCC3)C(=O)N2` (stereo not drawn) [Example 354, 2-Oxo-3-(2-piperazin-1-yl-6,7-dihydro-5H-cyclopentapyrimidin-4-yl)-2,3-dihydro-1H-indole-5-carbonitrile], the results for the concentration for half-maximal inhibition (IC50) against CDK5/GST-p25 (class symbols) and at His6-GSK-3β (class symbols) were under 300 nM and 300 to 3000 nM, respectively.
As for `O=C1Nc2ccc(Br)cc2C1c1nc(NCc2ccc(Cl)nc2)nc2c1CCC2` (stereo not drawn) [Example 338, 5-Bromo-3-{2-[(6-chloro-pyridin-3-ylmethyl)-amino]-6,7-dihydro-5H-cyclopentapyrimidin-4-yl}-1,3-dihydro-indol-2-one], the IC50 is over 3000 nM at CDK5/GST-p25 (numeric bounds) and over 10000 nM at His6-GSK-3β (class symbols).
Turning to `O=C1Nc2ccc(Br)cc2C1c1nc(NCc2ccccn2)nc2c1CCC2` (stereo not drawn) [Example 339, 5-Bromo-3-{2-[(pyridin-2-ylmethyl)-amino]-6,7-dihydro-5H-cyclopentapyrimidin-4-yl}-1,3-dihydro-indol-2-one], the IC50 against CDK5/GST-p25 (class symbols) and on His6-GSK-3β (class symbols) was over 10000 nM each time.
Take `N#Cc1ccc2c(c1)C(c1nc(NCc3ccccn3)nc3c1CCC3)C(=O)N2` (stereo not drawn) [Example 349, 2-Oxo-3-{2-[(pyridin-2-ylmethyl)-amino]-6,7-dihydro-5H-cyclopentapyrimidin-4-yl}-2,3-dihydro-1H-indole-5-carbonitrile]: the IC50 against CDK5/GST-p25 (class symbols) is under 300 nM; at His6-GSK-3β (class symbols), 300 to 3000 nM.
Take `O=C1Nc2ccc(F)cc2C1c1nc(NCc2cccnc2)nc2c1CCC2` (stereo not drawn) [Example 321, 5-Fluoro-3-{2-[(pyridin-3-ylmethyl)-amino]-6,7-dihydro-5H-cyclopentapyrimidin-4-yl}-1,3-dihydro-indol-2-one]: the IC50 on CDK5/GST-p25 (numeric bounds) and at His6-GSK-3β (numeric bounds) was over 3000 nM throughout.
With `N#Cc1ccc2c(c1)C(c1nc(O)nc3nn(C4CCCC4)cc13)C(=O)N2` (stereo not drawn) [Example 120, 3-(2-cyclopentyl-6-hydroxy-2H-pyrazolo [3,4-d]pyrimidin-4-yl)-2-oxo-2,3-dihydro-1H-indole-5-carbonitrile], the values for the IC50 on CDK5/GST-p25 (class symbols) and on His6-GSK-3β (class symbols) were over 10000 nM and under 300 nM, respectively.
In the case of `CN(C)CCCNc1nc(C2C(=O)Nc3ccc(C#N)cc32)c2cn(C3CCCC3)nc2n1` (stereo not drawn) [Example 138, 3-[2-cyclopentyl-6-(3-dimethylamino-propylamino)-2H-pyrazolo[3,4-d]pyrimidin-4-yl]-2-oxo-2,3-dihydro-1H-indole-5-carbonitrile], the 50% inhibitory concentration (IC50) was 300 to 3000 nM against CDK5/GST-p25 (class symbols) and under 300 nM at His6-GSK-3β (class symbols).
The corresponding values for `O=C1Nc2ccc(Br)cc2C1c1nc(NCc2cccnc2)nc2c1CCC2` (stereo not drawn) [Example 337, 5-Bromo-3-{2-[(pyridin-3-ylmethyl)-amino]-6,7-dihydro-5H-cyclopentapyrimidin-4-yl}-1,3-dihydro-indol-2-one] are 300 to 3000 nM and 300 to 3000 nM.
On to `COCCCNc1nc(C2C(=O)Nc3ccc(C#N)cc32)c2cn(C3CCCC3)nc2n1` (stereo not drawn) [Example 175, 3-[2-Cyclopentyl-6-(3-methoxy-propylamino)-2H-pyrazolo [3,4-d]pyrimidin-4-yl]-2-oxo-2,3-dihydro-1H-indole-5-carbonitrile], for which the IC50 against CDK5/GST-p25 (class symbols) and at His6-GSK-3β (class symbols) was under 300 nM in each case.
As to `CNc1nc(C2C(=O)Nc3ccc(C#N)cc32)c2cn(C3CCCC3)nc2n1` (stereo not drawn) [Example 115, 3-(2-cyclopentyl-6-methylamino-2H-pyrazolo[3,4-d]pyrimidin-4-yl)-2-oxo-2,3-dihydro-1H-indole-5-carbonitrile], the IC50 at CDK5/GST-p25 (class symbols) and on His6-GSK-3β (class symbols) was under 300 nM in each case.
In the case of `N#Cc1ccc2c(c1)C(c1nc(NCCc3ccncc3)nc3nn(C4CCCC4)cc13)C(=O)N2` (stereo not drawn) [Example 126, 3-(2-cyclopentyl-6-(2-pyridin-4-yl-ethylamino)-2H-pyrazolo [3,4-d]pyrimidin-4-yl)-2-oxo-2,3-dihydro-1H-indole-5-carbonitrile], the IC50 at CDK5/GST-p25 (class symbols) and on His6-GSK-3β (class symbols) was under 300 nM each time.
On to `N#Cc1ccc2c(c1)C(c1nc(NCc3cccnc3)nc3c1CCC3)C(=O)N2` (stereo not drawn) [Example 348, 2-Oxo-3-{2-[(pyridin-3-ylmethyl)-amino]-6,7-dihydro-5H-cyclopentapyrimidin-4-yl}-2,3-dihydro-1H-indole-5-carbonitrile], for which the IC50 on CDK5/GST-p25 (class symbols) was under 300 nM; on His6-GSK-3β (class symbols) it was 300 to 3000 nM.
The corresponding values for `N#Cc1ccc2c(c1)C(c1nc(N3CCOCC3)nc3nn(C4CCCC4)cc13)C(=O)N2` (stereo not drawn) [Example 118, 3-(2-cyclopentyl-6-morpholin-4-yl-2H-pyrazolo[3,4-d]pyrimidin-4-yl)-2-oxo-2,3-dihydro-1H-indole-5-carbonitrile] are 300 to 3000 nM and under 300 nM.
The corresponding values for `CCOCCn1cc2c(C3C(=O)Nc4ccc(Cl)cc43)nc(NCc3cccnc3)nc2n1` (stereo not drawn) [Example 213, 5-Chloro-3-{2-(2-ethoxy-ethyl)-6[(pyridin-3-ylmethyl)-amino]-2H-pyrazolo[3,4-d]pyrimidin-4-yl}-1,3-dihydro-indol-2-one] are under 300 nM and under 300 nM.
For `N#Cc1ccc2c(c1)C(c1nc(NCc3ccncc3)nc3c1CCC3)C(=O)N2` (stereo not drawn) [Example 347, 2-Oxo-3-{2-[(pyridin-4-ylmethyl)-amino]-6,7-dihydro-5H-cyclopentapyrimidin-4-yl}-2,3-dihydro-1H-indole-5-carbonitrile], the IC50 at CDK5/GST-p25 (class symbols) and at His6-GSK-3β (class symbols) was 300 to 3000 nM each time.
As to `CNCCCNc1nc(C2C(=O)Nc3ccc(Br)cc32)c2cn(CCOC)nc2n1` (stereo not drawn) [Example 226, 5-Bromo-3-[2-(2-methoxy-ethyl)-6-(3-methylamino-propylamino)-2H-pyrazolo[3,4-d]pyrimdin-4-yl]-1,3-dihydro-indol-2-one], the IC50 on CDK5/GST-p25 (class symbols) and at His6-GSK-3β (class symbols) was under 300 nM throughout.
As for `CCOCCNc1nc2c(c(C3C(=O)Nc4ccc(Br)cc43)n1)CCC2` (stereo not drawn) [Example 334, 5-Bromo-3-[2-(2-ethoxy-ethylamino)-6,7-dihydro-5H-cyclopentapyrimidin-4-yl]-1,3-dihydro-indol-2-one], the IC50 on CDK5/GST-p25 (class symbols) and at His6-GSK-3β (class symbols) was over 10000 nM in each case.

The values are drawn from patent US8354414B2, “Substituted bicyclic pyrimidines” (Cephalon, Inc, priority 2006, dated 2013).
